These results are taken from patent US11208412B2 (DAEGU-GYEONGBUK MEDICAL INNOVATION FOUNDATION, priority 2017, dated 2021).

Molecules are shown by their SMILES.

Holding throughout (test): Kinase selectivity, DiscoverX scanMAX Kinase assay panel (% control)
Common to all, as to format: binding

Test [1] concerns the target T1, kinases of the scanMAX Kinase assay panel (Homo sapiens, UniProt O96013).
T1 construct: purchased DiscoverX Co. (contract measurement) scanMAX Kinase assay panel
To be noted: PAK4; 1 uM. Put shortly: (§1)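 A 1 uM DMSO solution of compound was applied across the panel kinases, and results were expressed as % control relative to DMSO (100%) and a positive control (0%).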

Test [2] deals with T2, kinases of the scanMAX Kinase assay panel (Homo sapiens, UniProt P07947).
T2 construct: purchased DiscoverX Co. (contract measurement) scanMAX Kinase assay panel
T2 sequence (P07947 whole entry): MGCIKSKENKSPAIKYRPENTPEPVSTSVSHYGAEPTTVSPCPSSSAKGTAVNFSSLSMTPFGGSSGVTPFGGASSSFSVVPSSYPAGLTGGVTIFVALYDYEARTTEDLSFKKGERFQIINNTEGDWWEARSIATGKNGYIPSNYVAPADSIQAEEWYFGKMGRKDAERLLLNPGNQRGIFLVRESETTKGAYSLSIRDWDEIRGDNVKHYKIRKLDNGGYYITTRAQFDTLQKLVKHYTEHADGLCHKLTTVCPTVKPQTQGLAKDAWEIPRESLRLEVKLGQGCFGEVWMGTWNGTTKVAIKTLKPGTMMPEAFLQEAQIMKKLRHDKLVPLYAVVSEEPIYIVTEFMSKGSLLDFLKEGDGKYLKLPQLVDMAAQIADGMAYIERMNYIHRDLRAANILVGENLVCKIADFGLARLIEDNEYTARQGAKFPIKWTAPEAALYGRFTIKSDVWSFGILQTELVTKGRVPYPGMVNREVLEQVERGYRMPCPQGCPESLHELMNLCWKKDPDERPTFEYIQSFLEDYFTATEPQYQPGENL
Conditions: kinase YES; 1 uM in DMSO. An outline of the steps:
as §1

Test [3] concerns the target T3, kinases of the scanMAX Kinase assay panel (Homo sapiens, UniProt Q04759).
T3 construct: purchased DiscoverX Co. (contract measurement) scanMAX Kinase assay panel
To be noted: PRKCQ; 1 uM. An outline of the steps:
as §1

Test [4] deals with T4, kinases of the scanMAX Kinase assay panel (Homo sapiens, UniProt Q9NRM7).
T4 construct: purchased DiscoverX Co. (contract measurement) scanMAX Kinase assay panel
T4 sequence (Q9NRM7 1-1088): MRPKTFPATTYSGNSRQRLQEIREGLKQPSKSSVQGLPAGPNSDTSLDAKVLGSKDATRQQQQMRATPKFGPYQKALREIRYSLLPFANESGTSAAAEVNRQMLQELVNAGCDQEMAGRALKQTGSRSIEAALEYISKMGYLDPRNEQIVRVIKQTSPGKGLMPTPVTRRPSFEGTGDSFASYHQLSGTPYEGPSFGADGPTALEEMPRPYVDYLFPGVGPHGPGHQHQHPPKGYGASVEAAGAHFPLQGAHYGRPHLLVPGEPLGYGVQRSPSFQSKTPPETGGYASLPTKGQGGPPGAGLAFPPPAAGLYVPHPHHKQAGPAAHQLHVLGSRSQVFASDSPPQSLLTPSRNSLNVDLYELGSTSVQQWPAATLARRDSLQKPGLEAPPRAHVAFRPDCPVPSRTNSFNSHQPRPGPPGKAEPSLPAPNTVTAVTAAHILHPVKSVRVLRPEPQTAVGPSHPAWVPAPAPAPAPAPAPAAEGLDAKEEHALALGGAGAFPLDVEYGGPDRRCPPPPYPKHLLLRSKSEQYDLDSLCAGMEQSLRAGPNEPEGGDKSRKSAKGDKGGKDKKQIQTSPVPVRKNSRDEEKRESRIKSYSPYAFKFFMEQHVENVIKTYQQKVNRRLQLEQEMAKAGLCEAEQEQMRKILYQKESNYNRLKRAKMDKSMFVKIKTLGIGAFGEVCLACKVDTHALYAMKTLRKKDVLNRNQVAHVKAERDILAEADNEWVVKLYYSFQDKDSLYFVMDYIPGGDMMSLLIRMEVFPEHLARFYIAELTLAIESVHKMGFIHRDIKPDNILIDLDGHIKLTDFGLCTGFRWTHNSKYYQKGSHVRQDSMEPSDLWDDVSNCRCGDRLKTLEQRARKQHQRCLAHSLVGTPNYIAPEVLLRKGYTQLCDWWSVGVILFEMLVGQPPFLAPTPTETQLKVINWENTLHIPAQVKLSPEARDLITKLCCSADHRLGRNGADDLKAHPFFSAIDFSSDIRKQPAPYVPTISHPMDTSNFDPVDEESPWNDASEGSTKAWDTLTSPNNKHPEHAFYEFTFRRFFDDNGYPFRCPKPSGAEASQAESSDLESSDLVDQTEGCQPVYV
To be noted: LATS2; 1 uM. An outline of the steps: as §1

The target in test [5] is T5, kinases of the scanMAX Kinase assay panel (Homo sapiens, UniProt Q9NY57).
T5 construct: purchased DiscoverX Co. (contract measurement) scanMAX Kinase assay panel
T5 sequence (Q9NY57 whole entry): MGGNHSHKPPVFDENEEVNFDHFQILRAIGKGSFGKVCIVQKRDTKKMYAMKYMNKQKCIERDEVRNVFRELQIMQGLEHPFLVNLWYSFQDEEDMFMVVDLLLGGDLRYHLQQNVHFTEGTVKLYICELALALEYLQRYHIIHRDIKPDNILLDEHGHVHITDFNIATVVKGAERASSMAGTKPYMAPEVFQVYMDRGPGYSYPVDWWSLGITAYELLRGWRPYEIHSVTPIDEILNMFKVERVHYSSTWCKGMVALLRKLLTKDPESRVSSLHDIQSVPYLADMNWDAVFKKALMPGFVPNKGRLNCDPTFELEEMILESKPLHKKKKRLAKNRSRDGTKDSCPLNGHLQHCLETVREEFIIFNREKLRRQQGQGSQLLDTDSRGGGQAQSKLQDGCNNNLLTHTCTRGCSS
Conditions: kinase YANK2; 1 uM in DMSO. An outline of the steps: as §1

Test [6] addresses T6, kinases of the scanMAX Kinase assay panel (Homo sapiens, UniProt Q9UQB9).
T6 construct: purchased DiscoverX Co. (contract measurement) scanMAX Kinase assay panel
T6 sequence (Q9UQB9 1-309): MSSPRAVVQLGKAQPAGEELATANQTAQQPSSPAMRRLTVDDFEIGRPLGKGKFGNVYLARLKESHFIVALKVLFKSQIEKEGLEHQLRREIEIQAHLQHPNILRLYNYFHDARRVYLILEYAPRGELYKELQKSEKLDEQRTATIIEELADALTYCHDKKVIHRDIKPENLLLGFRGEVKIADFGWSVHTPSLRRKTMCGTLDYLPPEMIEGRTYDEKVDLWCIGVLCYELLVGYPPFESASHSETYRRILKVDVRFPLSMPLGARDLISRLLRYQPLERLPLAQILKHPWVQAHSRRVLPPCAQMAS
To be noted: AURKC; 1 uM. An outline of the steps: as §1

T3 sequence (Q04759 whole entry): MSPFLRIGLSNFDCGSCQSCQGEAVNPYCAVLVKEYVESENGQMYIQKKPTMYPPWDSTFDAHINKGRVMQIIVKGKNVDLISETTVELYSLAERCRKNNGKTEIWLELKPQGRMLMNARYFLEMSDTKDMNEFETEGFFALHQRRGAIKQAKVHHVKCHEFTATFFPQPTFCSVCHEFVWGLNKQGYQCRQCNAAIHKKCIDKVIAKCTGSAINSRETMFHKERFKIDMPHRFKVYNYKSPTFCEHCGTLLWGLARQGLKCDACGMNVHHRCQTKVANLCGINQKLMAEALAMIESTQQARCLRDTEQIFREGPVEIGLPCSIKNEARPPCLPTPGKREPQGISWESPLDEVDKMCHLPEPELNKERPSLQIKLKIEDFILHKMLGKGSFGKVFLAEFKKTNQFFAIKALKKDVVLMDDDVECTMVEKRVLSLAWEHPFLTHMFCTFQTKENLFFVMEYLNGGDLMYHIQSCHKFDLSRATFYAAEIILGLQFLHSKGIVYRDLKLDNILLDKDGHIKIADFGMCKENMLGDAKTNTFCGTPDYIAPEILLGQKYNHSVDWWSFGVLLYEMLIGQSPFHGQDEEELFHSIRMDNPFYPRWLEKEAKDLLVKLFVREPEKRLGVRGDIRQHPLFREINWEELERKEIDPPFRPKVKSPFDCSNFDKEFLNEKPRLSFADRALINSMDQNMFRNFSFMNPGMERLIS
T1 sequence (O96013 whole entry): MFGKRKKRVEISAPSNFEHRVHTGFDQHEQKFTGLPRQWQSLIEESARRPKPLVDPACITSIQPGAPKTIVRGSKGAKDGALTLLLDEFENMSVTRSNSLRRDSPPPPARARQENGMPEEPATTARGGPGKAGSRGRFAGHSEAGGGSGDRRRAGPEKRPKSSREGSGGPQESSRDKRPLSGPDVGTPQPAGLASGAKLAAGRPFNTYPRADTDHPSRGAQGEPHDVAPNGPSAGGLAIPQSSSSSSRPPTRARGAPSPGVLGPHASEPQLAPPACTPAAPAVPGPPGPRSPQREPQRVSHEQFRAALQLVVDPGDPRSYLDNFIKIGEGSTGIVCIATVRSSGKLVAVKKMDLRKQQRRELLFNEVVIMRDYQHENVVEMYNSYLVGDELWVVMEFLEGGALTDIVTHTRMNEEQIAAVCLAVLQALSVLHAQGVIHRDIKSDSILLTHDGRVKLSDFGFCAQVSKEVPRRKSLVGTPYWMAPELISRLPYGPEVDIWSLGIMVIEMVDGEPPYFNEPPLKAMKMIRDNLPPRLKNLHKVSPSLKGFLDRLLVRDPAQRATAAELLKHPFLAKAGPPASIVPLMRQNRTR

Regarding `CNc1nc(Nc2ccc(C(=O)N3CCOCC3)cc2OC)nc2[nH]cc(C#N)c12` [Example 1, 2-((2-methoxy-4-(morpholine-4-carbonyl)phenyl)amino)-4-(methylamino)-7H-pyrrolo[2,3-d]pyrimidine-5-carbonitrile], the remaining binding at 1 µM in test [1] came to 79%; in test [2], 100%; in test [3], 95%; in test [4] it was 61%; in test [5], 85%; in test [6], 100%.
Regarding `CC1(Nc2nc(Nc3cnn([C@H]4CCN(C5COC5)C[C@@H]4F)c3Cl)nc3[nH]cc(C#N)c23)CC1` [Example 52, 2-((5-chloro-1-((3S,4S)-3-fluoro-1-(oxetane-3-yl)piperidine-4-yl)-1H-pyrazole-4-yl)amino)((1-methylcyclopropyl)amino)-7H-pyrrolo[2,3-d]pyrimidine-5-carbonitrile], the remaining binding at 1 µM in test [1] came to 3.4%; in test [2] it was 10%; in test [3], 47%; in test [4] it was 11%; in test [5], 100%; in test [6] it was 7.1%.
For the molecule `CCNc1nc(Nc2ccc(C(=O)N3CCC(N4CCOCC4)CC3)cc2OC)nc2[nH]cc(C(F)(F)F)c12` [Example 104, (4-((4-(ethylamino)-5-(trifluoromethyl)-7H-pyrrolo[2,3-d]pyrimidine-2-yl)amino)-3-methoxyphenyl)(4-morpholinopiperidine-1-yl)methanone], the remaining binding at 1 µM in test [1] was 100%; in test [2], 100%; in test [3], 100%; in test [4] it was 87%; in test [5] it was 100%; in test [6] it was 100%.
